# Laboratory results as given in PubChem BioAssay (NCI).
#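 A five-concentration, 48-hour dose response in 96-well plates underlies each endpoint, interpolated linearly between surrounding concentrations. TGI is the concentration that stops growth completely.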
# Legend:
# Test in all cases: NCI tumour cell line growth inhibition, 48 h
# 786-0 renal = tested on: 786-0 renal
# A549 NSCLC = tested on: A549 NSCLC
# ACHN renal = tested on: ACHN renal
# BT-549 breast = tested on: BT-549 breast
# CAKI-1 renal = tested on: CAKI-1 renal
# CCRF-CEM leukemia = tested on: CCRF-CEM leukemia
# COLO 205 colon = tested on: COLO 205 colon
# DU-145 prostate = tested on: DU-145 prostate
# EKVX NSCLC = tested on: EKVX NSCLC
# HCC-2998 colon = tested on: HCC-2998 colon
# HCT-116 colon = tested on: HCT-116 colon
# HCT-15 colon = tested on: HCT-15 colon
# HL-60(TB) leukemia = tested on: HL-60(TB) leukemia
# HOP-62 NSCLC = tested on: HOP-62 NSCLC
# HOP-92 NSCLC = tested on: HOP-92 NSCLC
# HS 578T breast = tested on: HS 578T breast
# HT29 colon = tested on: HT29 colon
# IGROV1 ovarian = tested on: IGROV1 ovarian
# K-562 leukemia = tested on: K-562 leukemia
# KM12 colon = tested on: KM12 colon
# LOX IMVI melanoma = tested on: LOX IMVI melanoma
# M14 melanoma = tested on: M14 melanoma
# MALME-3M melanoma = tested on: MALME-3M melanoma
# MCF7 breast = tested on: MCF7 breast
# MDA-MB-231 breast = tested on: MDA-MB-231 breast
# MDA-MB-435 = tested on: MDA-MB-435
# MDA-N = tested on: MDA-N
# MOLT-4 leukemia = tested on: MOLT-4 leukemia
# NCI-H226 lung = tested on: NCI-H226 lung
# NCI-H23 lung = tested on: NCI-H23 lung
# NCI-H460 lung = tested on: NCI-H460 lung
# NCI-H522 lung = tested on: NCI-H522 lung
# NCI/ADR-RES ovarian = tested on: NCI/ADR-RES ovarian
# OVCAR-3 ovarian = tested on: OVCAR-3 ovarian
# OVCAR-4 ovarian = tested on: OVCAR-4 ovarian
# OVCAR-5 ovarian = tested on: OVCAR-5 ovarian
# OVCAR-8 ovarian = tested on: OVCAR-8 ovarian
# PC-3 prostate = tested on: PC-3 prostate
# RPMI-8226 leukemia = tested on: RPMI-8226 leukemia
# RXF 393 renal = tested on: RXF 393 renal
# SF-268 CNS = tested on: SF-268 CNS
# SF-295 CNS = tested on: SF-295 CNS
# SF-539 CNS = tested on: SF-539 CNS
# SK-MEL-2 melanoma = tested on: SK-MEL-2 melanoma
# SK-MEL-28 melanoma = tested on: SK-MEL-28 melanoma
# SK-MEL-5 melanoma = tested on: SK-MEL-5 melanoma
# SK-OV-3 ovarian = tested on: SK-OV-3 ovarian
# SN12C renal = tested on: SN12C renal
# SNB-19 CNS = tested on: SNB-19 CNS
# SR leukemia = tested on: SR leukemia
# SW-620 colon = tested on: SW-620 colon
# T-47D breast = tested on: T-47D breast
# TK-10 renal = tested on: TK-10 renal
# U251 CNS = tested on: U251 CNS
# UACC-257 melanoma = tested on: UACC-257 melanoma
# UACC-62 melanoma = tested on: UACC-62 melanoma
# UO-31 renal = tested on: UO-31 renal
# A498 renal = tested on: A498 renal
# SNB-75 CNS = tested on: SNB-75 CNS
compound,measurement,setting,value
CC(C)(C)n1c(=O)n(C(=O)C(Cl)(Cl)Cl)n(C(=O)C(Cl)(Cl)Cl)c1=O,TGI,786-0 renal,> 100 µM
same,TGI,A549 NSCLC,> 100 µM
same,TGI,ACHN renal,> 100 µM
same,TGI,BT-549 breast,> 100 µM
same,TGI,CAKI-1 renal,> 100 µM
same,TGI,CCRF-CEM leukemia,> 100 µM
same,TGI,COLO 205 colon,> 100 µM
same,TGI,DU-145 prostate,> 100 µM
same,TGI,EKVX NSCLC,> 100 µM
same,TGI,HCC-2998 colon,> 100 µM
same,TGI,HCT-116 colon,> 100 µM
same,TGI,HCT-15 colon,> 100 µM
same,TGI,HL-60(TB) leukemia,> 100 µM
same,TGI,HOP-62 NSCLC,> 100 µM
same,TGI,HOP-92 NSCLC,> 100 µM
same,TGI,HS 578T breast,> 100 µM
same,TGI,HT29 colon,> 100 µM
same,TGI,IGROV1 ovarian,> 100 µM
same,TGI,K-562 leukemia,> 100 µM
same,TGI,KM12 colon,> 100 µM
same,TGI,LOX IMVI melanoma,> 100 µM
same,TGI,M14 melanoma,> 100 µM
same,TGI,MALME-3M melanoma,> 100 µM
same,TGI,MCF7 breast,> 100 µM
same,TGI,MDA-MB-231 breast,> 100 µM
same,TGI,MDA-MB-435,> 100 µM
same,TGI,MDA-N,> 100 µM
same,TGI,MOLT-4 leukemia,> 100 µM
same,TGI,NCI-H226 lung,> 100 µM
same,TGI,NCI-H23 lung,> 100 µM
same,TGI,NCI-H460 lung,> 100 µM
same,TGI,NCI-H522 lung,> 100 µM
same,TGI,NCI/ADR-RES ovarian,> 100 µM
same,TGI,OVCAR-3 ovarian,> 100 µM
same,TGI,OVCAR-4 ovarian,> 100 µM
same,TGI,OVCAR-5 ovarian,> 100 µM
same,TGI,OVCAR-8 ovarian,> 100 µM
same,TGI,PC-3 prostate,> 100 µM
same,TGI,RPMI-8226 leukemia,> 100 µM
same,TGI,RXF 393 renal,> 100 µM
same,TGI,SF-268 CNS,> 100 µM
same,TGI,SF-295 CNS,> 100 µM
same,TGI,SF-539 CNS,> 100 µM
same,TGI,SK-MEL-2 melanoma,> 100 µM
same,TGI,SK-MEL-28 melanoma,> 100 µM
same,TGI,SK-MEL-5 melanoma,> 100 µM
same,TGI,SK-OV-3 ovarian,> 100 µM
same,TGI,SN12C renal,> 100 µM
same,TGI,SNB-19 CNS,> 100 µM
same,TGI,SR leukemia,> 100 µM
same,TGI,SW-620 colon,> 100 µM
same,TGI,T-47D breast,> 100 µM
same,TGI,TK-10 renal,> 100 µM
same,TGI,U251 CNS,> 100 µM
same,TGI,UACC-257 melanoma,> 100 µM
same,TGI,UACC-62 melanoma,> 100 µM
same,TGI,UO-31 renal,> 100 µM
Nc1ccc(-c2nc3cc(F)ccc3s2)cc1I,TGI,786-0 renal,32 µM
same,TGI,A498 renal,31.2 µM
same,TGI,A549 NSCLC,> 100 µM
same,TGI,ACHN renal,24.6 µM
same,TGI,BT-549 breast,29.9 µM
same,TGI,CAKI-1 renal,72.5 µM
same,TGI,CCRF-CEM leukemia,> 100 µM
same,TGI,COLO 205 colon,> 100 µM
same,TGI,DU-145 prostate,> 100 µM
same,TGI,EKVX NSCLC,43.9 µM
same,TGI,HCT-116 colon,53 µM
same,TGI,HCT-15 colon,> 66.5 µM
same,TGI,HL-60(TB) leukemia,> 100 µM
same,TGI,HOP-62 NSCLC,33.6 µM
same,TGI,HOP-92 NSCLC,39.3 µM
same,TGI,HS 578T breast,> 75.1 µM
same,TGI,HT29 colon,> 100 µM
same,TGI,IGROV1 ovarian,22.3 µM
same,TGI,K-562 leukemia,> 100 µM
same,TGI,KM12 colon,> 100 µM
same,TGI,LOX IMVI melanoma,> 100 µM
same,TGI,M14 melanoma,> 100 µM
same,TGI,MALME-3M melanoma,72.9 µM
same,TGI,MCF7 breast,3.91 µM
same,TGI,MDA-MB-231 breast,30.4 µM
same,TGI,MDA-MB-435,> 100 µM
same,TGI,MDA-N,> 100 µM
same,TGI,MOLT-4 leukemia,> 100 µM
same,TGI,NCI-H226 lung,21 µM
same,TGI,NCI-H23 lung,18.9 µM
same,TGI,NCI-H460 lung,23.7 µM
same,TGI,NCI-H522 lung,33.2 µM
same,TGI,NCI/ADR-RES ovarian,54.3 µM
same,TGI,OVCAR-3 ovarian,> 37.9 µM
same,TGI,OVCAR-4 ovarian,> 100 µM
same,TGI,OVCAR-5 ovarian,43 µM
same,TGI,OVCAR-8 ovarian,42.4 µM
same,TGI,PC-3 prostate,> 100 µM
same,TGI,RPMI-8226 leukemia,> 100 µM
same,TGI,RXF 393 renal,31.3 µM
same,TGI,SF-268 CNS,35.2 µM
same,TGI,SF-295 CNS,> 56.6 µM
same,TGI,SF-539 CNS,29.8 µM
same,TGI,SK-MEL-2 melanoma,50.6 µM
same,TGI,SK-MEL-28 melanoma,> 100 µM
same,TGI,SK-MEL-5 melanoma,> 70.4 µM
same,TGI,SK-OV-3 ovarian,32.9 µM
same,TGI,SN12C renal,> 69.8 µM
same,TGI,SNB-19 CNS,54.9 µM
same,TGI,SNB-75 CNS,33.8 µM
same,TGI,SR leukemia,> 59.5 µM
same,TGI,SW-620 colon,> 100 µM
same,TGI,T-47D breast,97.2 µM
same,TGI,TK-10 renal,21.1 µM
same,TGI,U251 CNS,26.8 µM
same,TGI,UACC-257 melanoma,> 100 µM
same,TGI,UACC-62 melanoma,85.8 µM
same,TGI,UO-31 renal,> 65.2 µM
